Structures are written as SMILES.

This data set in a line: Human HepG2 cell viability assay in 384 well format. The class given is toxicity, cell-based. On the set-up: dose 125 nL, time 70.5 hour; concentration not given beside the values. Conditions: HepG2 cells, read-out: Inhibition.
As for `Cc1cc(C(=O)CN(Cc2cccnc2)CC2CCCO2)c(C)[nH]1` (stereo not drawn), the cytotoxicity at 70.5 h was -15.9%.

With `OCC1CCCN1c1cc(NCc2ccccn2)ncn1` (stereo not drawn), the cytotoxicity at 70.5 h worked out at 0.0157%.

As for `CC(C)c1nn(C)c(N2CCOCC2)c1CNCc1nncn1C`, the cytotoxicity at 70.5 h was determined as 0.87%.

As for `Cc1noc(C)c1CNCc1c(C(C)C)nn(C)c1N1CCOCC1`, the cytotoxicity at 70.5 h was -10.5%.

Take `Cc1ccsc1CNCc1c(C(C)C)nn(C)c1N1CCOCC1`: the cytotoxicity at 70.5 h is -20.5%.

Consider `O=C(CCc1ccsc1)N1CCCC(N2CCNC2=O)C1` (stereo not drawn), for which the cytotoxicity at 70.5 h is -10.5%.

In the case of `CN(C)C(=O)C1CCCN1CCCNC(=O)c1ccccc1Cl` (stereo not drawn), the cytotoxicity at 70.5 h stood at 4.52%.

Take `Cc1cc(N2CCC(N(C)C(=O)c3cccs3)CC2)nc(C)n1`: the cytotoxicity at 70.5 h was -18.8%.

With `Cc1cc(C)n(CC2CCCN2C(=O)c2ccc3c(c2)OCCO3)n1` (stereo not drawn), the cytotoxicity at 70.5 h was -12.8%.

Turning to `Cc1cnn(CC2CCCCN2C(=O)c2ccc3c(c2)nnn3C)c1` (stereo not drawn), the cytotoxicity at 70.5 h was -1.73%.

For `CSCC(CCO)NC(=O)Nc1cc(F)ccc1C` (stereo not drawn), the cytotoxicity at 70.5 h is 10.3%.

As to `O=C(NCC1CC1)C1CSCN1S(=O)(=O)c1cc(F)cc(F)c1` (stereo not drawn), the cytotoxicity at 70.5 h was -15.2%.

Regarding `c1ccc(-c2cnc(CN(Cc3cccnc3)CC3CCCO3)o2)cc1` (stereo not drawn), the cytotoxicity at 70.5 h is -7.3%.

As for `Cc1cccc(CC(=O)N2CCOCC2c2c(C)n[nH]c2C)c1` (stereo not drawn), the cytotoxicity at 70.5 h was -18.3%.

As to `Cc1ccc(CC(=O)N2CCOCC2c2c(C)n[nH]c2C)cc1` (stereo not drawn), the cytotoxicity at 70.5 h was -21.7%.

Consider `Cc1n[nH]c(C)c1C1COCCN1C(=O)Cc1ccccc1F` (stereo not drawn), for which the cytotoxicity at 70.5 h is -0.503%.

As to `Cc1csc(N2CCN(Cc3nccn3C)CC2C)n1` (stereo not drawn), the cytotoxicity at 70.5 h is -16.3%.

Consider `CC(C)(C)c1cnc(CN(Cc2cccnc2)CC2CCCO2)o1` (stereo not drawn), for which the cytotoxicity at 70.5 h is -12.3%.

As to `COC(C)(C)CNC(=O)N1CCCC1c1c(C)n[nH]c1C` (stereo not drawn), the cytotoxicity at 70.5 h was -13.9%.

On to `CCN1CCCC1CN(CCN(C)C)S(=O)(=O)c1ccccc1C#N` (stereo not drawn), for which the cytotoxicity at 70.5 h was found to be 29.4%.

For `Cc1ccc(CNCC2CCN(CCO)CC2)cc1`, the cytotoxicity at 70.5 h is 39.2%.

Regarding `CCOC(=O)N1CCN(C(=O)c2sc(-c3ccccc3)nc2C)CC1`, the cytotoxicity at 70.5 h came out at 48.7%.

For the compound `Cc1ccc(C(=O)NCC2Cc3ccccc3O2)cc1S(C)(=O)=O` (stereo not drawn), the cytotoxicity at 70.5 h was -1.47%.

As for `CC(=O)c1ccc(C(=O)NCC2Cc3ccccc3O2)s1` (stereo not drawn), the cytotoxicity at 70.5 h was 23.7%.

As to `CCS(=O)(=O)c1ccccc1C(=O)NCC1Cc2ccccc2O1` (stereo not drawn), the cytotoxicity at 70.5 h was -3.88%.

With `CC(C)S(=O)(=O)c1ccccc1C(=O)NCC1Cc2ccccc2O1` (stereo not drawn), the cytotoxicity at 70.5 h is -1.85%.

Regarding `Cc1ccc(C(=O)N2CCCC(CNS(=O)(=O)C(C)C)C2)cc1` (stereo not drawn), the cytotoxicity at 70.5 h is -3.09%.

Take `Cc1nccn1-c1cc(CNC(=O)C2CCC(=O)NC2)ccn1` (stereo not drawn): the cytotoxicity at 70.5 h came out at 12.3%.

For `NC(=O)c1ccc(CNCC2CCN(CCO)CC2)cc1`, the cytotoxicity at 70.5 h is -5.52%.

Take `CC(Oc1ccccc1C(F)(F)F)C(=O)NCCNC(=O)C1CC1` (stereo not drawn): the cytotoxicity at 70.5 h is -6.09%.

Take `COc1c(C2CCCN2C(=O)c2ccoc2)c(C)nn1C` (stereo not drawn): the cytotoxicity at 70.5 h stood at 13.3%.

As for `Cc1cc(NC(=O)CN2CCCC2c2noc(C3CC3)n2)on1` (stereo not drawn), the cytotoxicity at 70.5 h is -7.03%.

`Cc1nnc(NC(=O)CN2CCCC2c2noc(C3CC3)n2)s1` (stereo not drawn): the cytotoxicity at 70.5 h amounted to 21.8%.

`O=S1(=O)CCN(c2nc(C3CC3)ns2)CC1`: the cytotoxicity at 70.5 h is -5.98%.

`C1CN(c2nc(C3CC3)ns2)CCS1`: the cytotoxicity at 70.5 h is -1.41%.

Take `O=C(NCCOc1ncc(Cl)cc1Cl)NCc1ccncc1`: the cytotoxicity at 70.5 h was -1.68%.

In the case of `O=C(CCc1ccncc1)NCCOc1ncc(Cl)cc1Cl`, the cytotoxicity at 70.5 h is -6.13%.

In the case of `Cc1nccn1-c1cc(CNC(=O)COCC2CC2)ccn1`, the cytotoxicity at 70.5 h is -6.02%.

For the compound `CC(C)n1cc(CN2CCCN(C(=O)c3ccco3)CC2)cn1`, the cytotoxicity at 70.5 h is 21%.

Regarding `Cc1cccc(N(CCC(N)=O)CC(=O)Nc2cc(Cl)ccc2Cl)c1`, the cytotoxicity at 70.5 h was -5.69%.

In the case of `Cc1ccc(C(=O)NCCCn2cncn2)c(=O)[nH]1`, the cytotoxicity at 70.5 h is 21.9%.

As to `COc1c(C)cnc(CN(C)C(=O)c2cccc(NC(N)=O)c2)c1C`, the cytotoxicity at 70.5 h is -2.3%.

On to `Cc1cccc(N(CCC(N)=O)CC(=O)NC2CCCC2)c1`, for which the cytotoxicity at 70.5 h worked out at 18%.

For `COCc1cccc(NC(=O)N(C)Cc2ncc(C)c(OC)c2C)c1`, the cytotoxicity at 70.5 h was -3.88%.

Consider `CC1CN(C)CCN1C(=O)c1ccc(-n2cnnc2)cc1` (stereo not drawn), for which the cytotoxicity at 70.5 h is -1.59%.

For `COc1c(C)cnc(CN(C)C(=O)Nc2ccc3c(c2)CCO3)c1C`, the cytotoxicity at 70.5 h stood at 19%.

With `COC(=O)c1ccc(NC(=O)CCc2ccncc2)c(C)c1`, the cytotoxicity at 70.5 h was -11.9%.

For `Cc1ccoc1C(=O)N(CCN(C)C)Cc1ccccn1`, the cytotoxicity at 70.5 h was -2.01%.

Regarding `COc1ccccc1C(C)CC(=O)N1CCCS1(=O)=O` (stereo not drawn), the cytotoxicity at 70.5 h is -5.37%.

On to `Cc1cc(C(C)NC(=O)Cn2nc(C)c3ccccc3c2=O)c(C)o1` (stereo not drawn), for which the cytotoxicity at 70.5 h was 18.3%.

For `CC(C)c1cc(C(=O)NCC2(C(N)=O)CCOCC2)nn1C(C)(C)C`, the cytotoxicity at 70.5 h is -4.75%.

For the compound `CC1CCN(CC(=O)NC(C#N)c2cnn(-c3ccccc3)c2)CC1` (stereo not drawn), the cytotoxicity at 70.5 h was -2.96%.

Regarding `Cc1cc(N2CCC(NC(C)Cc3ccsc3)CC2)nc(C)n1` (stereo not drawn), the cytotoxicity at 70.5 h was -2.86%.

As to `COc1cccc(F)c1C(C)NC(=O)NCc1cc(C(C)C)no1` (stereo not drawn), the cytotoxicity at 70.5 h is -12.9%.

As to `COCCN(CCOC)c1ncccc1I`, the cytotoxicity at 70.5 h was -4.47%.

As for `COC(=O)CCC(=O)NC1CCCc2cc(OC(F)F)ccc21` (stereo not drawn), the cytotoxicity at 70.5 h was -13%.

As to `Cc1ccc(S(=O)(=O)NC(=O)CCOCc2ccccc2)s1`, the cytotoxicity at 70.5 h was -10.6%.

Consider `CCC(Nc1nnnn1-c1ccccc1)C(=O)Nc1ccccc1C` (stereo not drawn), for which the cytotoxicity at 70.5 h was -11%.

As to `Cc1cccc(-c2nnc(C(C)N3CCn4c(C)nnc4C3)o2)c1` (stereo not drawn), the cytotoxicity at 70.5 h was -12.4%.

`Cc1cc(OCc2cccc(F)c2)ccc1NC(=O)C(C)NC(N)=O` (stereo not drawn): the cytotoxicity at 70.5 h stood at 5.5%.

Consider `CCC(Nc1nnnn1-c1ccccc1)C(=O)NC1CCSCC1` (stereo not drawn), for which the cytotoxicity at 70.5 h was -9.32%.

`CCc1ccc(C(=O)O)cc1S(=O)(=O)Nc1ccc(=O)n(C)c1`: the cytotoxicity at 70.5 h came out at 5.54%.

Turning to `CCC1CN(C(=O)c2cnc(-c3cnn(C)c3)s2)CCO1` (stereo not drawn), the cytotoxicity at 70.5 h is -6.34%.

Regarding `CCNC(=O)N(C)C(c1cccnc1)C(C)C` (stereo not drawn), the cytotoxicity at 70.5 h is -9.88%.

As to `O=C(Cc1ccc(S(=O)(=O)C(F)F)cc1)N1CCC1`, the cytotoxicity at 70.5 h is -10.6%.

Regarding `Cc1cnn(CC(=O)NC2CCCc3cc(OC(F)F)ccc32)c1` (stereo not drawn), the cytotoxicity at 70.5 h is -6.6%.

Turning to `O=C(CS(=O)(=O)C1CCCC1)NC1CCCc2cc(OC(F)F)ccc21` (stereo not drawn), the cytotoxicity at 70.5 h was -9.47%.

For the compound `Cc1ccsc1C(=O)Nc1cc(Br)c(=O)n(C)c1`, the cytotoxicity at 70.5 h was -8.88%.

On to `Cc1csc(C(C#N)C(=O)NCc2cccnc2)n1` (stereo not drawn), for which the cytotoxicity at 70.5 h is -5.59%.

On to `Cc1ccc(OCC(C)NS(=O)(=O)N(C)C)cc1` (stereo not drawn), for which the cytotoxicity at 70.5 h was -5.84%.

As to `c1ccc(Cn2ccnc2CNC2CCCOc3ccccc32)cc1` (stereo not drawn), the cytotoxicity at 70.5 h is -6.62%.

On to `COCCCN(C)c1ncccc1I`, for which the cytotoxicity at 70.5 h amounted to 8.68%.

As to `Cc1nc(CN(C)C2CCN(Cc3nc4c(F)cccc4[nH]3)C2)no1` (stereo not drawn), the cytotoxicity at 70.5 h was 4.6%.

Take `COCC(O)CN(C)c1ccnc2cc(F)ccc12` (stereo not drawn): the cytotoxicity at 70.5 h amounted to 13.1%.

In the case of `CSCc1cc(F)ccc1CNCc1ccncc1`, the cytotoxicity at 70.5 h was determined as 4.11%.

On to `O=C(Nc1nccs1)C1CCN(Cc2cccc3c2OCCO3)CC1`, for which the cytotoxicity at 70.5 h turned out to be 6.98%.

With `Cc1csc(NC(=O)C2CCN(Cc3cccc4c3OCCO4)CC2)n1`, the cytotoxicity at 70.5 h turned out to be 8.1%.

Take `CCN1CCC(CNC(=O)c2cc(Cl)c[nH]2)CC1`: the cytotoxicity at 70.5 h was -8.09%.

As to `NC(=O)[C@@H]1Cc2ccccc2CN1S(=O)(=O)N1CCCCC1`, the cytotoxicity at 70.5 h is -1.22%.

Take `CC(=O)N(C)c1nc(Cn2nnnc2C(C)(C)C)cs1`: the cytotoxicity at 70.5 h was -4.99%.

For `Cn1cnnc1C1CCN(C(=O)c2cc(-c3ccccc3)on2)CC1`, the cytotoxicity at 70.5 h was 25.4%.

For `O=C(NCC1(Sc2ccccc2)CC1)c1ccc(=O)[nH]n1`, the cytotoxicity at 70.5 h was -6.34%.

Consider `CCC1CCCCCN1C(=O)c1cc(C#N)c(SC)[nH]c1=O` (stereo not drawn), for which the cytotoxicity at 70.5 h is 24.7%.

`Cc1noc(C)c1C(=O)N1CCCN(C)c2ccc(Cl)cc21`: the cytotoxicity at 70.5 h was -3.33%.

Consider `Cc1noc(C)c1C(C)C(=O)N1CCCN(C)c2ccc(Cl)cc21` (stereo not drawn), for which the cytotoxicity at 70.5 h was -6.12%.

With `CC(C)(C)OC(=O)NC(C)(C(N)=O)c1cccc(Cl)c1` (stereo not drawn), the cytotoxicity at 70.5 h was found to be 25.4%.

On to `CC1CCN(C(=O)NCC(=O)N(C)CC(F)(F)F)C1` (stereo not drawn), for which the cytotoxicity at 70.5 h was -4.12%.

With `CC(C)C1CCN(C(=O)NCC(=O)N(C)CC(F)(F)F)CC1`, the cytotoxicity at 70.5 h stood at 20.8%.

Turning to `COCCC(=O)NC(C)(C(N)=O)c1cccc(Cl)c1` (stereo not drawn), the cytotoxicity at 70.5 h was -3.41%.

For the compound `CSCc1cc(F)ccc1CNCc1ncc[nH]1`, the cytotoxicity at 70.5 h is -8.53%.

For `CSCc1cc(F)ccc1CNCc1cccc(O)c1`, the cytotoxicity at 70.5 h is -5.38%.

In the case of `CSc1[nH]c(=O)c(C(=O)N2CCCC2C2CCCC2)cc1C#N` (stereo not drawn), the cytotoxicity at 70.5 h was -5.31%.

Consider `CN(CC(F)(F)F)C(=O)CNC(=O)N1CCCC(N(C)C)C1` (stereo not drawn), for which the cytotoxicity at 70.5 h was -8.19%.

Consider `CC1COCCN1Cc1nc(Cc2ccccc2)no1` (stereo not drawn), for which the cytotoxicity at 70.5 h is -8.66%.

Turning to `O=C(NC1CCN(C(=O)C2CCCCC2)C1)c1ccncc1Cl` (stereo not drawn), the cytotoxicity at 70.5 h is -9.33%.

For the compound `Cn1cnnc1C1CCCN(C(=O)c2cc(C3CC3)on2)C1` (stereo not drawn), the cytotoxicity at 70.5 h was -10.9%.

For `FC(F)(F)c1cccc(C2(CNCc3ccncc3)CCOCC2)c1`, the cytotoxicity at 70.5 h was 6.55%.

`CNS(=O)(=O)c1cccc(C(C)NCc2nccn2C(C)C)c1` (stereo not drawn): the cytotoxicity at 70.5 h came to 10.8%.

On to `CC(C)OCCCN1CCCC(c2nc3ccccc3n2C(C)C)C1` (stereo not drawn), for which the cytotoxicity at 70.5 h was determined as 13.2%.

For the compound `Cc1cc(C(N)=O)ccc1NC(=O)c1nc(N2CCCC2)ncc1Cl`, the cytotoxicity at 70.5 h is -4.63%.

For the compound `NCC1(c2cccc(C(F)(F)F)c2)CCOCC1`, the cytotoxicity at 70.5 h is -3.44%.

Turning to `Cc1ccc(CNC(c2cccc(F)c2)c2nccn2C)o1` (stereo not drawn), the cytotoxicity at 70.5 h was -3%.

`Cc1cc(S(=O)(=O)NC(C)(C)CN)c(F)cc1F`: the cytotoxicity at 70.5 h is -9.88%.
